Test results as given in patent US8840866B2, “Styrylpyridine derivatives and their use for binding and imaging amyloid plaques” (The Trustees of the University of Pennsylvania, priority 2006, dated 2014).

Experiment: Organ distribution in normal ICR mice after iv injection of radiolabeled tracer
Format: in vivo
Conditions: [125I]-labeled tracer
Protocol: The mice (n=3 for each time point) were sacrificed by cervical dislocation at designated time-points post injection. The organs of interest were removed and weighed, and the radioactivity was counted with an automatic gamma counter. The percentage dose per organ was calculated by a comparison of the tissue counts to suitably diluted aliquots of the injected material. The total activity of the blood was calculated under the assumption that it is 7% of the total body weight. The % dose/g of samples was calculated by comparing the sample counts with the count of the diluted initial dose.

Structure (SMILES)	Biodistribution: Blood (2 min) [% dose/g]	Biodistribution: Brain (2 min) [% dose/g]	Biodistribution: Heart (2 min) [% dose/g]	Biodistribution: Kidney (2 min) [% dose/g]	Biodistribution: Liver (2 min) [% dose/g]	Biodistribution: Lung (2 min) [% dose/g]	Biodistribution: Muscle (2 min) [% dose/g]	Biodistribution: Skin (2 min) [% dose/g]	Biodistribution: Spleen (2 min) [% dose/g]	Biodistribution: Thyroid (2 min) [% dose/g]	Biodistribution: Blood (30 min) [% dose/g]	Biodistribution: Brain (30 min) [% dose/g]	Biodistribution: Heart (30 min) [% dose/g]	Biodistribution: Kidney (30 min) [% dose/g]	Biodistribution: Liver (30 min) [% dose/g]	Biodistribution: Lung (30 min) [% dose/g]	Biodistribution: Muscle (30 min) [% dose/g]	Biodistribution: Skin (30 min) [% dose/g]	Biodistribution: Spleen (30 min) [% dose/g]	Biodistribution: Thyroid (30 min) [% dose/g]	further results
CN(C)c1ccc(/C=C/c2cnc(OCCOCCOCCF)c(I)c2)cc1 [[^125I]13a, (E)-(5-Iodo-6-{2-[2-(2-fluoroethoxy)ethoxy]ethoxy}pyridin-3-yl)-2-(4-dimethylaminophenyl)-ethylene]	2.70 ± 0.58	4.03 ± 0.43	12.76 ± 1.24	16.62 ± 1.96	22.15 ± 4.34	10.08 ± 2.15	0.90 ± 0.20	0.54 ± 0.05	4.47 ± 1.28	3.89 ± 0.67	2.05 ± 0.18	1.93 ± 0.18	1.63 ± 0.03	3.32 ± 0.11	9.54 ± 1.30	2.50 ± 0.14	1.00 ± 0.08	1.47 ± 0.26	1.42 ± 0.05	16.23 ± 11.75	Biodistribution: Blood (1 hr): 1.65 ± 0.45 % dose/g; Biodistribution: Brain (1 hr): 0.68 ± 0.17 % dose/g; Biodistribution: Heart (1 hr): 0.97 ± 0.16 % dose/g; Biodistribution: Kidney (1 hr): 2.30 ± 0.54 % dose/g; Biodistribution: Liver (1 hr): 5.34 ± 2.22 % dose/g; Biodistribution: Lung (1 hr): 1.62 ± 0.46 % dose/g; Biodistribution: Muscle (1 hr): 0.59 ± 0.13 % dose/g; Biodistribution: Skin (1 hr): 1.59 ± 0.68 % dose/g; Biodistribution: Spleen (1 hr): 0.99 ± 0.47 % dose/g; Biodistribution: Thyroid (1 hr): 24.19 ± 8.26 % dose/g; Biodistribution: Blood (2 hr): 1.45 ± 0.41 % dose/g; Biodistribution: Brain (2 hr): 0.26 ± 0.04 % dose/g; Biodistribution: Heart (2 hr): 0.73 ± 0.17 % dose/g; Biodistribution: Kidney (2 hr): 1.71 ± 0.24 % dose/g; Biodistribution: Liver (2 hr): 5.62 ± 1.31 % dose/g; Biodistribution: Lung (2 hr): 1.33 ± 0.39 % dose/g; Biodistribution: Muscle (2 hr): 0.53 ± 0.08 % dose/g; Biodistribution: Skin (2 hr): 1.23 ± 0.41 % dose/g; Biodistribution: Spleen (2 hr): 0.79 ± 0.27 % dose/g; Biodistribution: Thyroid (2 hr): 60.76 ± 6.09 % dose/g
CNc1ccc(/C=C/c2cnc(OCCOCCOCCF)c(I)c2)cc1 [[^125I]13b, (E)-(5-Iodo-6-{2-[2-(2-fluoroethoxy)ethoxy]ethoxy}pyridin-3-yl)-2-(4-methylaminophenyl)-ethylene]	4.37 ± 1.07	6.22 ± 1.01	9.85 ± 1.78	9.03 ± 6.81	26.24 ± 4.47	6.85 ± 0.27	1.04 ± 0.25	1.48 ± 0.07	4.41 ± 1.05	5.74 ± 0.42	3.83 ± 1.11	1.23 ± 0.13	2.54 ± 0.37	3.40 ± 0.76	11.47 ± 2.10	3.01 ± 0.96	1.11 ± 0.34	2.95 ± 0.81	2.49 ± 0.75	24.09 ± 27.44	Biodistribution: Blood (1 hr): 2.88 ± 0.28 % dose/g; Biodistribution: Brain (1 hr): 0.62 ± 0.17 % dose/g; Biodistribution: Heart (1 hr): 1.75 ± 0.26 % dose/g; Biodistribution: Kidney (1 hr): 2.81 ± 0.70 % dose/g; Biodistribution: Liver (1 hr): 7.70 ± 1.22 % dose/g; Biodistribution: Lung (1 hr): 2.37 ± 0.29 % dose/g; Biodistribution: Muscle (1 hr): 0.85 ± 0.06 % dose/g; Biodistribution: Skin (1 hr): 2.46 ± 0.16 % dose/g; Biodistribution: Spleen (1 hr): 1.75 ± 0.33 % dose/g; Biodistribution: Thyroid (1 hr): 38.09 ± 6.37 % dose/g; Biodistribution: Blood (2 hr): 2.21 ± 0.73 % dose/g; Biodistribution: Brain (2 hr): 0.26 ± 0.01 % dose/g; Biodistribution: Heart (2 hr): 1.22 ± 0.28 % dose/g; Biodistribution: Kidney (2 hr): 1.86 ± 0.36 % dose/g; Biodistribution: Liver (2 hr): 6.25 ± 1.79 % dose/g; Biodistribution: Lung (2 hr): 1.85 ± 0.74 % dose/g; Biodistribution: Muscle (2 hr): 0.44 ± 0.19 % dose/g; Biodistribution: Skin (2 hr): 1.32 ± 0.41 % dose/g; Biodistribution: Spleen (2 hr): 1.27 ± 0.24 % dose/g; Biodistribution: Thyroid (2 hr): 215.05 ± 74.59 % dose/g
CN(C)c1ccc(/C=C/c2cnc(OCCO)c(I)c2)cc1 [[^125I]16a, (E)-[5-Iodo-6-(2-hydroxyethoxy)pyridin-3-yl]-2-(4-dimethylaminophenyl)-ethylene]	2.71 ± 0.07	5.43 ± 0.85	10.24 ± 0.45	14.25 ± 1.98	19.12 ± 2.68	9.41 ± 0.56	0.71 ± 0.46	0.46 ± 0.13	4.40 ± 1.89	4.15 ± 0.43	2.24 ± 0.38	3.56 ± 0.32	1.93 ± 0.27	4.19 ± 0.45	12.38 ± 1.29	3.02 ± 0.38	1.05 ± 0.20	1.18 ± 0.26	1.94 ± 0.19	11.21 ± 7.88	Biodistribution: Blood (1 hr): 2.18 ± 0.66 % dose/g; Biodistribution: Brain (1 hr): 1.32 ± 0.00 % dose/g; Biodistribution: Heart (1 hr): 1.12 ± 0.02 % dose/g; Biodistribution: Kidney (1 hr): 2.49 ± 0.33 % dose/g; Biodistribution: Liver (1 hr): 6.22 ± 0.96 % dose/g; Biodistribution: Lung (1 hr): 1.98 ± 0.21 % dose/g; Biodistribution: Muscle (1 hr): 0.55 ± 0.03 % dose/g; Biodistribution: Skin (1 hr): 1.16 ± 0.00 % dose/g; Biodistribution: Spleen (1 hr): 1.32 ± 0.10 % dose/g; Biodistribution: Thyroid (1 hr): 59.13 ± 6.26 % dose/g; Biodistribution: Blood (2 hr): 1.01 ± 0.02 % dose/g; Biodistribution: Brain (2 hr): 0.46 ± 0.05 % dose/g; Biodistribution: Heart (2 hr): 0.62 ± 0.12 % dose/g; Biodistribution: Kidney (2 hr): 1.48 ± 0.20 % dose/g; Biodistribution: Liver (2 hr): 4.87 ± 0.46 % dose/g; Biodistribution: Lung (2 hr): 1.00 ± 0.15 % dose/g; Biodistribution: Muscle (2 hr): 0.22 ± 0.04 % dose/g; Biodistribution: Skin (2 hr): 0.40 ± 0.05 % dose/g; Biodistribution: Spleen (2 hr): 0.80 ± 0.11 % dose/g; Biodistribution: Thyroid (2 hr): 24.81 ± 0.62 % dose/g
CNc1ccc(/C=C/c2cnc(OCCO)c(I)c2)cc1 [[^125I]16b, (E)-[5-Iodo-6-(2-hydroxyethoxy)pyridin-3-yl]-2-(4-methylaminophenyl)-ethylene]	4.14 ± 0.41	8.04 ± 0.82	7.16 ± 1.16	11.51 ± 1.48	20.84 ± 2.38	7.43 ± 1.21	1.15 ± 0.38	0.95 ± 0.09	4.08 ± 0.68	6.31 ± 1.59	3.08 ± 0.35	0.88 ± 0.30	1.50 ± 0.18	3.73 ± 0.75	12.57 ± 3.03	2.67 ± 0.46	0.91 ± 0.06	1.86 ± 0.50	1.34 ± 0.29	17.23 ± 14.23	Biodistribution: Blood (1 hr): 1.81 ± 0.56 % dose/g; Biodistribution: Brain (1 hr): 0.26 ± 0.03 % dose/g; Biodistribution: Heart (1 hr): 0.88 ± 0.30 % dose/g; Biodistribution: Kidney (1 hr): 2.16 ± 0.08 % dose/g; Biodistribution: Liver (1 hr): 5.62 ± 0.68 % dose/g; Biodistribution: Lung (1 hr): 1.76 ± 0.32 % dose/g; Biodistribution: Muscle (1 hr): 0.42 ± 0.08 % dose/g; Biodistribution: Skin (1 hr): 1.29 ± 0.51 % dose/g; Biodistribution: Spleen (1 hr): 0.87 ± 0.37 % dose/g; Biodistribution: Thyroid (1 hr): 36.69 ± 37.17 % dose/g; Biodistribution: Blood (2 hr): 1.96 ± 0.14 % dose/g; Biodistribution: Brain (2 hr): 0.15 ± 0.02 % dose/g; Biodistribution: Heart (2 hr): 0.76 ± 0.03 % dose/g; Biodistribution: Kidney (2 hr): 1.53 ± 0.20 % dose/g; Biodistribution: Liver (2 hr): 3.41 ± 0.20 % dose/g; Biodistribution: Lung (2 hr): 1.58 ± 0.10 % dose/g; Biodistribution: Muscle (2 hr): 0.38 ± 0.02 % dose/g; Biodistribution: Skin (2 hr): 1.43 ± 0.10 % dose/g; Biodistribution: Spleen (2 hr): 1.08 ± 0.15 % dose/g; Biodistribution: Thyroid (2 hr): 99.88 ± 69.45 % dose/g
